Laboratory results: patent US8119640B2, “Hedgehog pathway antagonists methods of use” (The Board of Trustees of the Leland Stanford Junior …, priority 2008, dated 2012)

What was measured:
FLAG-Gli1 = assay: Analysis of Gli1 stability; assay type: cell-based, mouse; settings: Shh-LIGHT2 FLAG-Gli1 cells, 24 h
Experimental: Analysis of Gli1 stability. […] The cells were maintained under these conditions for 24 h. The cells were subsequently solubilized in lysis buffer (100 μL/well; 50 mM Tris-HCl, pH 7.4, 1% Triton X-100, 250 mM NaCl, 2 mM EDTA, 20 mM NaF, 2 mM Na3VO4, 2 mM 2-mercaptoethanol, and EDTA-free protease inhibitor cocktail (Roche)). This suspension was transferred to a 1.5-mL centrifuge tube and incubated on ice for 30 min, with vortexing every 5 min. The cell lysates were then centrifuged at 20,000×g at 4° C. for 20 min. Supernatants were removed, and a BCA assay was performed to quantify protein levels. 15 μg […] of protein from each sample was solubilized in 1×SDS-PAGE sample buffer (50 mM Tris-HCl, pH 6.8 containing 10% glycerol, 2% SDS, 50 mM DTT, 200 mM 2-mercaptoethanol, and 0.001% bromophenol blue) and boiled for 5 min. The samples were then resolved on a 4-12% Bis-Tris Criterion XT gel and transferred to a PVDF membrane. The membrane was dehydrated with methanol, and then probed with mouse anti-FLAG M2 antibody (Sigma; 1:1,000 dilution in blocking buffer (PBS containing 3% non-fat dried milk and 0.01% Tween 20)) for 90 min. The blots were washed 4×5 min in PBS containing 0.01% Tween 20 and then probed with horseradish peroxidase-conjugated sheep anti-mouse IgG antibody (GE Healthcare; 1:10,000 dilution in blocking buffer) for 1 h. The membranes were washed again 4×3 min in PBS, and immunoreactive bands were detected with a SuperSignal West Dura kit and a ChemiDoc XRS system. To probe for loading controls, the blots were rinsed with PBS, incubated for 1 min in methanol, washed 3×5 min in PBS, and then re-blocked for 1 h in PBS containing 5% non-fat dried milk and 0.1% Tween 20. […] Protein bands were quantified using Quantity One software (Bio-Rad). FLAG-Gli1 and importin β1 bands were normalized to the average band intensities for each experiment. The ratio of these two values was then used to determine the relative amount of FLAG-Gli1 per condition. Results from three independent experiments were then averaged, and normalized to FLAG-Gli1 levels in DMSO-treated cells.

[1] = system: Math1-cre:SmoM2 cerebellar GNPs; assay: Math1-cre:SmoM2 cerebellar GNP proliferation; assay type: cell-based, mice; settings: for Proliferation of SmoM2-expressing GNPs (histone H3 phosphorylation): HPIs 10 μM, cyclopamine 5 μM, 24 h
Experimental: Analysis of Math1-cre:SmoM2 cerebellar GNP proliferation. To generate Math1-cre:SmoM2 tumors (11), a Math1-cre driver was used to conditionally express an activated Smo (SmoM2) allele. The Gt(ROSA)26Sortm1 (Smo/EYFP)Amc/J) mouse line was obtained from Jackson Laboratory (Bar Harbor, ME). […] Primary cultures from Math1-cre:SmoM2 tumors were established by triturating tumor tissue and plating the dissociated cells onto poly-D-ornithine-coated plates in DMEM-F-12 with N2 supplement, 25 mM KCI, and antibiotics. After culturing the cells for 24 h, they were treated with individual HPIs ([…]) for 24 h. Cell proliferation was then quantified by immunocytochemistry, and the expression of cyclin D1 and Gli1 were assessed by immunoblotting and RT-PCR, respectively. For immunocytochemistry, the primary cultures were fixed in 4% paraformaldehyde for 30 min at room temperature. […] Immunofluorescently stained cultures were imaged using a Nikon Eclipse E600 microscope equipped with a 20×objective. Approximately 30,000 cells were analyzed for each experimental condition. To detect proteins by immunoblotting, non-denaturing lysates were prepared from Math1-cre:SmoM2 cultures using lysate buffer (50 mM HEPES, pH 7.4, containing 150 mM NaCl, 1 mM EDTA, 2.5 mM EGTA, 0.1% Triton X-100, 10% glycerol, and 1 mM DTT), resolved on a 10% SDS-PAGE gel, and transferred onto a PVDF membrane. The membrane was incubated overnight at 4° C. with anti-cyclin D1 (Ab-3, Neomarkers; 1:1,000 dilution) or anti-β-tubulin (T4026, Sigma; 1:5,000 dilution) antibodies. […] For RT-PCR analyses, total RNA from Math1-cre:SmoM2cultures was extracted with TRIzol (Invitrogen) according to the manufacturer's protocol. The RNA was purified further […] with an RNeasy kit (Qiagen), and then reverse-transcribed with an Advantage RT-for-PCR Kit (Clontech) and random hexamer primers. […] Typical PCR conditions were as follows: an initial denaturation at 95° C. for 1 min followed by 28 cycles of denaturation at 94° C. for 45 sec, annealing at 60° C. for 45 sec, extension at 70° C. for 2 min, and a final extension at 72° C. for 7 min. The resulting PCR products were analyzed on 2% agarose gels.

COCCOC(=O)C1=C(C)NC2=C(C(=O)CC(c3ccccc3OC)C2)C1c1cccc(O)c1 (mixture of isomers) [Compound 8, 4-(3-Hydroxy-phenyl)-7-(2-methoxy-phenyl)-2-methyl-5-oxo-1,4,5,6,7,8-hexahydro-quinoline-3-carboxylic acid 2-methoxy-ethyl ester]
FLAG-Gli1 stability/levels (immunoblotting) (FLAG-Gli1): increased | Cellular levels of cyclin D1 protein and Gli1 transcripts in GNPs [1]: reduced cellular levels of cyclin D1 protein and Gli1 transcripts | Proliferation of SmoM2-expressing GNPs (histone H3 phosphorylation) [1]: significantly inhibited the proliferation

OCCNc1nc(N2CCN(c3ccccc3)CC2)nc2ccccc12 [Compound 11]
FLAG-Gli1 stability/levels (immunoblotting) (FLAG-Gli1): neither HPI-2 or HPI-3 had any significant effect on FLAG-Gli1 levels | Proliferation of SmoM2-expressing GNPs (histone H3 phosphorylation) [1]: did not block GNP proliferation

COc1ccc(OC)c2c1cc1n2CC(C)(C(=O)NC2CCCCCCC2)N(CCN(C)C)C1=O (stereo not shown) [Compound 17]
FLAG-Gli1 stability/levels (immunoblotting) (FLAG-Gli1): neither HPI-2 or HPI-3 had any significant effect on FLAG-Gli1 levels | Proliferation of SmoM2-expressing GNPs (histone H3 phosphorylation) [1]: did not block GNP proliferation

N#CC(C(=O)c1ccc(Cl)cc1Cl)=C1NC(=O)c2ccccc2N1 [Compound 18]
FLAG-Gli1 stability/levels (immunoblotting) (FLAG-Gli1): decreased | Cellular levels of cyclin D1 protein and Gli1 transcripts in GNPs [1]: reduced cellular levels of cyclin D1 protein and Gli1 transcripts | Proliferation of SmoM2-expressing GNPs (histone H3 phosphorylation) [1]: significantly inhibited the proliferation
